Columns and labels:
Test in all cases: relative viability (nuclei count vs DMSO), 5 days (fraction); higher = more cells survive
[1] = compound: Cc1ccc(C(=O)Nc2ccc(CN3CCN(C)CC3)c(C(F)(F)F)c2)cc1C#Cc1cnc2cccnn12 [Ponatinib]
Procedure, shortened: (§1)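 Lung cancer cell lines received five library-drug doses (not always all listed) spaced by √10, pinned on vehicle-anchored 1536-well plates after an overnight stay at 37 °C. Five days later, with no medium change, nuclei were Hoechst-stained, imaged at 4× and counted with MetaXpress. Viability is treated-well nuclei relative to vehicle-well nuclei, as a median across plates. Passing plates had control CV below 25% and at least one doubling.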

[2] = compound: Cc1ccc(Nc2nccc(N(C)c3ccc4c(C)n(C)nc4c3)n2)cc1S(N)(=O)=O [Pazopanib]
Procedure, shortened: as §1

[3] = compound: Cc1ccc(C(=O)Nc2ccc(CN3CCN(C)CC3)c(C(F)(F)F)c2)cc1C#Cc1cnc2cccnn12 [Ponatinib] + CC1(C)CCC(c2ccc(Cl)cc2)=C(CN2CCN(c3ccc(C(=O)NS(=O)(=O)c4ccc(N[C@H](CCN5CCOCC5)CSc5ccccc5)c(S(=O)(=O)C(F)(F)F)c4)cc3)CC2)C1 [Navitoclax] (partner 0.5 µM)
Procedure, shortened: (§2)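 Five library-drug doses in √10 steps were combined with a fixed anchor-drug dose, or a single drug was given alone, by pin tool to lung cancer cell lines in 1536-well plates the day after seeding. Nuclei were stained and counted after 5 days. Relative viability is the nuclei count in treated wells over that in vehicle wells, taken as the median of duplicate plates.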

[4] = compound: Cc1ccc(C(=O)Nc2ccc(CN3CCN(C)CC3)c(C(F)(F)F)c2)cc1C#Cc1cnc2cccnn12 [Ponatinib] + COc1cc2c(Oc3ccc(NC(=O)C4(C(=O)Nc5ccc(F)cc5)CC4)cc3F)ccnc2cc1OCCCN1CCOCC1 [Foretinib] (partner 0.25 µM)
Procedure, shortened: as §2

Cell Line	relative viability ([1]; 0.002 µM)	relative viability ([1]; 0.006325 µM)	relative viability ([1]; 0.06325 µM)	relative viability ([1]; 0.2 µM)	relative viability ([2]; 0.01 µM)	relative viability ([2]; 0.03162 µM)	relative viability ([2]; 0.1 µM)	relative viability ([2]; 0.3162 µM)	relative viability ([2]; 1 µM)	relative viability ([3]; first compound 0.002 µM)	relative viability ([3]; first compound 0.006325 µM)	relative viability ([3]; first compound 0.06325 µM)	relative viability ([3]; first compound 0.2 µM)	relative viability ([4]; first compound 0.002 µM)	relative viability ([4]; first compound 0.006325 µM)	relative viability ([4]; first compound 0.06325 µM)	relative viability ([4]; first compound 0.2 µM)
LU99A	0.94	1.02	0.943	0.939	0.759	0.909	1.01	1.03	1.01	0.715	0.832	0.886	0.77	0.781	0.928	0.876	0.774
NCI-H1355	0.923	1.02	1.11	1	0.753	0.952	0.95	1	1.06	0.984	1.08	1.17	1.08	0.988	0.943	1.1	0.971
HCC-78	0.8	0.994	1.03	0.874	0.743	1	0.889	0.933	0.936	0.578	0.725	0.981	0.629	0.521	0.578	0.598	0.534
HCC-15	0.972	1.06	1.1	1.02	0.837	0.987	1.02	1.06	1.03	0.671	0.738	0.83	0.661	0.974	0.928	1.13	1.01
EKVX	0.899	1.06	1.24	1.06	0.902	0.989	0.964	1.06	1.03	0.878	0.907	1.04	0.735	0.615	0.784	0.846	1.01
NCI-H2087	0.877	0.782	0.928	0.974	1.02	1.06	1.07	1.09	0.908	0.825	0.771	0.864	0.995	1.12	0.864	1.01	0.868
LK-2	0.872	1	0.816	0.73	0.891	0.965	0.943	0.928	0.858	0.619	0.825	1.04	0.64	–	1.07	0.687	0.739
NCI-H1437	0.945	0.983	1.01	0.926	1	0.972	0.971	0.976	1.06	1.06	1.08	1.22	1.08	1.22	1.22	1.31	1.28
COR-L23	0.887	0.941	0.97	0.876	1.13	1	1.04	1.09	1.04	0.977	0.912	1	0.901	0.931	0.896	0.929	0.796
PC-14	0.887	0.984	1.16	0.993	1.06	1.07	1.06	1.1	1.11	0.927	1	1.14	0.919	0.981	1.04	1.14	0.975
A549	0.809	0.975	1.02	0.917	0.935	0.99	1.04	1.01	1.17	1.17	1.11	1.37	1.16	0.965	0.941	1.13	0.887
A-427	0.928	1.05	0.958	0.81	0.863	1.12	0.885	1	1.14	0.916	0.971	1.07	0.854	1	1.19	1.11	0.715
LCLC-97TM1	0.925	0.996	0.961	0.892	–	1	0.912	1.02	1.04	–	0.645	–	0.385	0.915	0.967	0.944	0.675
NCI-H1703	0.821	0.83	0.466	0.333	0.744	0.735	0.562	0.353	0.331	0.856	0.943	0.278	0.205	0.275	0.337	0.273	0.257
RERF-LC-KJ	0.926	1.01	1.05	0.965	1.11	1.03	0.984	0.919	0.969	1.09	0.968	1.07	1.06	0.819	0.894	0.873	0.867
BEN	0.765	0.967	1.01	0.847	0.729	1.1	0.929	1.05	1.05	0.0656	0.0538	0.0585	0.0666	0.549	0.663	0.457	0.674
NCI-H1666	0.919	0.977	1.11	1.04	0.989	1	1.01	0.976	1.07	0.94	1.15	1.18	0.979	0.967	0.988	1.06	0.886
LC-2-ad	0.85	0.885	0.785	0.768	1	0.99	1.01	1.07	1.07	0.482	0.419	0.49	0.349	0.915	0.859	0.966	0.842
SW 1573	0.961	0.955	1.06	0.897	0.948	1.02	1.07	1.2	1.13	1.02	0.989	1.03	0.901	0.75	0.767	0.922	0.864

— the supplement of paper PMC10307832
